The values below come from ChEMBL document CHEMBL1146326, “13C bis-labeled pyrroles: a tool for the identification of the rat metabolism of 3-methyl pyrrole-2,4-dicarboxylic acid 2-propyl ester 4-(1,2,2-trimethyl-propyl) ester” (Bioorg Med Chem Lett, 2007).

Sequence of Metabotropic glutamate receptor 1 (Q13255 whole entry): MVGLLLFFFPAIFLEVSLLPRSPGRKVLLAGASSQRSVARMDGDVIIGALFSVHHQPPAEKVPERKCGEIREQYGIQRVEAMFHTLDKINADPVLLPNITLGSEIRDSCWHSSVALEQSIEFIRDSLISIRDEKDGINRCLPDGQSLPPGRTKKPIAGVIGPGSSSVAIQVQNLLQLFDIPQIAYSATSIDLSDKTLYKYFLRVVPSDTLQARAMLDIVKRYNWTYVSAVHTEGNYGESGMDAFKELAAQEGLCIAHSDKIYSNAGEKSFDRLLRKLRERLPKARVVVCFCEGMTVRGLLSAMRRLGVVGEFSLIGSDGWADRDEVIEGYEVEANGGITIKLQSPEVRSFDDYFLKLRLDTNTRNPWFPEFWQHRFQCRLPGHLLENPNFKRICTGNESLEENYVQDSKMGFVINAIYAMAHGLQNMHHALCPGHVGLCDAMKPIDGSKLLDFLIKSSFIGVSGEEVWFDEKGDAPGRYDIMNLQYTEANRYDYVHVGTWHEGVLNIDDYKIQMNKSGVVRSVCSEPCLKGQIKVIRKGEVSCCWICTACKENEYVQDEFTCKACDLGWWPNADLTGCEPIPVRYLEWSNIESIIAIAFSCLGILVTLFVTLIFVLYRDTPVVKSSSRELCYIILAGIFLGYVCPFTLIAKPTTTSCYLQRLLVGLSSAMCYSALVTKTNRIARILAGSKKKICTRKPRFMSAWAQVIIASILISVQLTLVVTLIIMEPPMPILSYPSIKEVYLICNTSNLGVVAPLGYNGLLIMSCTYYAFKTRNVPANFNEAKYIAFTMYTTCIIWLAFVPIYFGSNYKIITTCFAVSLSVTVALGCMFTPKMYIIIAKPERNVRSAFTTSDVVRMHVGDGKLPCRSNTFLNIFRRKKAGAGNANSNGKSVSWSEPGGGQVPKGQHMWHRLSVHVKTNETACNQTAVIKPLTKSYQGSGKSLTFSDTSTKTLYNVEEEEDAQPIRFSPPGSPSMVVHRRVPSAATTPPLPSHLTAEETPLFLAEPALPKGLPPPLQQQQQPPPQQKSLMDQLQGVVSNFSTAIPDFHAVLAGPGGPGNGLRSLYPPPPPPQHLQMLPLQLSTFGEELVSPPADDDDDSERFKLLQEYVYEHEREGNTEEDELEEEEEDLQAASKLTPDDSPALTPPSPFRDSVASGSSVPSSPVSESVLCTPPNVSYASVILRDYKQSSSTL

This test concerns the target Metabotropic glutamate receptor 1 (Homo sapiens, UniProt Q13255). Briefly: Inhibition of recombinant mGluR1a receptor expressed in CHO cells. The format is cell-based.
For orientation: IC50 means the point on the concentration scale where inhibition reaches its midpoint. For `CCCOC(=O)c1[nH]cc(C(=O)O[C@@H](C)C(C)(C)C)c1C`, the IC50 was 3.98 nM. The value for `COCCNC(=O)c1[nH]c(C)c(C(=O)OC2CC3CCC2C3)c1C` (centres undefined) was 316 nM. The value for `CCOC(=O)c1[nH]c(C)c(C(=O)OC2CC3CCC2C3)c1C` (centres undefined) was 100 nM; that for `COCCNC(=O)c1[nH]cc(C(=O)O[C@@H](C)C(C)(C)C)c1C` was 31.6 nM; that for `CCOC(=O)c1[nH]cc(C(=O)OC2CC3CCC2C3)c1C` (centres undefined) was 20 nM. Take `COCCNC(=O)c1[nH]cc(C(=O)OC2CC3CCC2C3)c1C` (centres undefined): the 50% inhibitory concentration (IC50) was 158 nM. With `COCCNC(=O)c1[nH]cc(C(=O)NC2CC3CCC2C3)c1C` (centres undefined), the IC50 was > 10000 nM.

On to `CC(=O)NCCCCNC(=O)c1[nH]cc(C(=O)OC2CC3CCC2C3)c1C` (centres undefined), for which the 50% inhibitory concentration (IC50) was 200 nM. Then `CC(=O)NCCCCNC(=O)c1[nH]c(C)c(C(=O)OC2CC3CCC2C3)c1C` (centres undefined), with 1000 nM.
